{"source": "patent US6737383B1", "about": "“Herbicidal oxadiazolidines” (priority 1999, dated 2004)", "key": {"bedstraw": {"test_system": "bedstraw", "experiment": "Test B pre/postemergence bedstraw", "type": "in vivo, Galium aparine", "how_it_was_run": "(§1)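 Response is a visual 0-to-10 score relative to untreated plants, where 0 means no effect and 10 means complete control, taken twelve to sixteen days after application. Treatments went onto soil at planting and onto foliage of 1- to 4-leaf plants, using a surfactant-containing non-phytotoxic solvent.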"}, "blackgrass": {"test_system": "blackgrass", "experiment": "Test B pre/postemergence blackgrass", "type": "in vivo, Alopecurus myosuroides", "conditions": "for Plant response rating, Blackgrass: scale of 0 to 10 where 0 is no effect and 10 is complete control", "how_it_was_run": "as §1"}, "surinam grass": {"test_system": "surinam grass", "experiment": "Test B pre/postemergence surinam grass", "type": "in vivo, Brachiaria decumbens", "how_it_was_run": "as §1"}, "cocklebur": {"test_system": "cocklebur", "experiment": "Test B pre/postemergence cocklebur", "type": "in vivo, Xanthium strumarium", "how_it_was_run": "as §1"}, "corn": {"test_system": "corn", "experiment": "Test B pre/postemergence corn", "type": "in vivo, Zea mays", "how_it_was_run": "as §1"}, "crabgrass": {"test_system": "crabgrass", "experiment": "Test B pre/postemergence crabgrass", "type": "in vivo, Digitaria sanguinalis", "how_it_was_run": "as §1"}, "giant foxtail": {"test_system": "giant foxtail", "experiment": "Test B pre/postemergence giant foxtail", "type": "in vivo, Setaria faberii", "how_it_was_run": "as §1"}, "morningglory": {"test_system": "morningglory", "experiment": "Test B pre/postemergence morningglory", "type": "in vivo, Ipomoea hederacea", "how_it_was_run": "as §1"}, "pigweed": {"test_system": "pigweed", "experiment": "Test B pre/postemergence pigweed", "type": "in vivo, Amaranthus retroflexus", "how_it_was_run": "as §1"}, "rape": {"test_system": "rape", "experiment": "Test B pre/postemergence rape", "type": "in vivo, Brassica napus", "how_it_was_run": "as §1"}, "soybean": {"test_system": "soybean", "experiment": "Test B pre/postemergence soybean", "type": "in vivo, Glycine max", "how_it_was_run": "as §1"}, "sugar beet": {"test_system": "sugar beet", "experiment": "Test B pre/postemergence sugar beet", "type": "in vivo, Beta vulgaris", "how_it_was_run": "as §1"}, "velvetleaf": {"test_system": "velvetleaf", "experiment": "Test B pre/postemergence velvetleaf", "type": "in vivo, Abutilon theophrasti", "how_it_was_run": "as §1"}, "wheat": {"test_system": "wheat", "experiment": "Test B pre/postemergence wheat", "type": "in vivo, Triticum aestivum", "how_it_was_run": "as §1"}, "wild oat": {"test_system": "wild oat", "experiment": "Test B pre/postemergence wild oat", "type": "in vivo, Avena fatua", "how_it_was_run": "as §1"}, "purple nutsedge": {"test_system": "purple nutsedge", "experiment": "Test B pre/postemergence purple nutsedge", "type": "in vivo, Cyperus rotundus", "how_it_was_run": "as §1"}, "[1]": {"conditions": "Postemergence, Rate 62 g/ha, scale of 0 to 10, 0 is no effect, 10 is complete control"}, "[2]": {"conditions": "Postemergence, Rate 125 g/ha, scale of 0 to 10 where 0 is no effect and 10 is complete control"}, "[3]": {"conditions": "Postemergence, Rate 250 g/ha, scale of 0 to 10, 0 is no effect, 10 is complete control"}, "[4]": {"conditions": "Preemergence, Rate 62 g/ha, scale 0 to 10 (0 no effect, 10 complete control)"}, "[5]": {"conditions": "Preemergence, Rate 500 g/ha, scale of 0 to 10 where 0 is no effect and 10 is complete control"}, "[6]": {"conditions": "Postemergence, Rate 500 g/ha, scale of 0 to 10 where 0 is no effect and 10 is complete control"}, "[7]": {"conditions": "Preemergence, Rate 125 g/ha, scale of 0 to 10 where 0 is no effect and 10 is complete control"}}, "data": [{"smiles": "CC(C)N(C(=O)n1oc(=O)n(CCC(F)(F)F)c1=O)c1ccccc1", "note": "[Compound 584]", "values": [{"measurement": "Bedstraw plant response rating", "setting": "bedstraw; [1]", "result": 5}, {"measurement": "Plant response rating, Bedstraw", "setting": "bedstraw; [2]", "result": 5}, {"measurement": "Bedstraw plant response rating", "setting": "bedstraw; [3]", "result": 9}, {"measurement": "Bedstraw plant response rating", "setting": "bedstraw; [4]", "result": 9}, {"measurement": "Bedstraw plant response rating (0 to 10 scale)", "setting": "bedstraw; Preemergence, Rate 250 g/ha", "result": 9}, {"measurement": "Bedstraw plant response rating", "setting": "bedstraw; [5]", "result": 9}, {"measurement": "Blackgrass plant response rating", "setting": "blackgrass; [1]", "result": 5}, {"measurement": "Plant response rating, Blackgrass", "setting": "blackgrass; Postemergence, Rate 125 g/ha", "result": 7}, {"measurement": "Blackgrass plant response rating", "setting": "blackgrass; [3]", "result": 7}, {"measurement": "Plant response rating, Blackgrass", "setting": "blackgrass; Postemergence, Rate 500 g/ha", "result": 7}, {"measurement": "Blackgrass plant response rating", "setting": "blackgrass; [4]", "result": 9}, {"measurement": "Blackgrass plant response rating (0 to 10 scale)", "setting": "blackgrass; Preemergence, Rate 250 g/ha", "result": 8}, {"measurement": "B. signalgrass plant response rating", "setting": "surinam grass; [1]", "result": 3}, {"measurement": "Plant response rating, B. signalgrass", "setting": "surinam grass; [2]", "result": 3}, {"measurement": "B. signalgrass plant response rating", "setting": "surinam grass; [3]", "result": 7}, {"measurement": "Plant response rating, B. signalgrass", "setting": "surinam grass; [6]", "result": 9}, {"measurement": "B. signalgrass plant response rating", "setting": "surinam grass; [4]", "result": 7}, {"measurement": "B. signalgrass plant response rating", "setting": "surinam grass; [7]", "result": 7}, {"measurement": "B. signalgrass plant response rating", "setting": "surinam grass; [5]", "result": 9}, {"measurement": "Cocklebur plant response rating", "setting": "cocklebur; [1]", "result": 0}, {"measurement": "Plant response rating, Cocklebur", "setting": "cocklebur; [2]", "result": 2}, {"measurement": "Cocklebur plant response rating", "setting": "cocklebur; [3]", "result": 4}, {"measurement": "Plant response rating, Cocklebur", "setting": "cocklebur; [6]", "result": 4}, {"measurement": "Cocklebur plant response rating", "setting": "cocklebur; [4]", "result": 0}, {"measurement": "Cocklebur plant response rating", "setting": "cocklebur; [7]", "result": 0}, {"measurement": "Cocklebur plant response rating (0 to 10 scale)", "setting": "cocklebur; Preemergence, Rate 250 g/ha", "result": 0}, {"measurement": "Cocklebur plant response rating", "setting": "cocklebur; [5]", "result": 0}, {"measurement": "Corn plant response rating", "setting": "corn; [1]", "result": 0}, {"measurement": "Plant response rating, Corn", "setting": "corn; [2]", "result": 2}, {"measurement": "Corn plant response rating", "setting": "corn; [3]", "result": 3}, {"measurement": "Plant response rating, Corn", "setting": "corn; [6]", "result": 4}, {"measurement": "Corn plant response rating", "setting": "corn; [4]", "result": 0}, {"measurement": "Corn plant response rating", "setting": "corn; [7]", "result": 0}, {"measurement": "Corn plant response rating (0 to 10 scale)", "setting": "corn; Preemergence, Rate 250 g/ha", "result": 2}, {"measurement": "Corn plant response rating", "setting": "corn; [5]", "result": 3}, {"measurement": "Crabgrass plant response rating", "setting": "crabgrass; [1]", "result": 1}, {"measurement": "Plant response rating, Crabgrass", "setting": "crabgrass; [2]", "result": 7}, {"measurement": "Crabgrass plant response rating", "setting": "crabgrass; [3]", "result": 6}, {"measurement": "Plant response rating, Crabgrass", "setting": "crabgrass; [6]", "result": 9}, {"measurement": "Crabgrass plant response rating", "setting": "crabgrass; [4]", "result": 8}, {"measurement": "Crabgrass plant response rating", "setting": "crabgrass; [7]", "result": 8}, {"measurement": "Crabgrass plant response rating", "setting": "crabgrass; [5]", "result": 9}, {"measurement": "Giant foxtail plant response rating", "setting": "giant foxtail; [1]", "result": 7}, {"measurement": "Plant response rating, Giant foxtail", "setting": "giant foxtail; [2]", "result": 8}, {"measurement": "Giant foxtail plant response rating", "setting": "giant foxtail; [3]", "result": 9}, {"measurement": "Plant response rating, Giant foxtail", "setting": "giant foxtail; [6]", "result": 9}, {"measurement": "Giant foxtail plant response rating", "setting": "giant foxtail; [4]", "result": 9}, {"measurement": "Giant foxtail plant response rating", "setting": "giant foxtail; [7]", "result": 8}, {"measurement": "Giant foxtail plant response rating", "setting": "giant foxtail; [5]", "result": 10}, {"measurement": "Morningglory plant response rating", "setting": "morningglory; [1]", "result": 1}, {"measurement": "Plant response rating, Morningglory", "setting": "morningglory; [2]", "result": 4}, {"measurement": "Morningglory plant response rating", "setting": "morningglory; [3]", "result": 5}, {"measurement": "Plant response rating, Morningglory", "setting": "morningglory; [6]", "result": 3}, {"measurement": "Morningglory plant response rating", "setting": "morningglory; [4]", "result": 4}, {"measurement": "Morningglory plant response rating", "setting": "morningglory; [7]", "result": 4}, {"measurement": "Morningglory plant response rating", "setting": "morningglory; [5]", "result": 3}, {"measurement": "Plant response rating, Redroot pigweed", "setting": "pigweed; [2]", "result": 2}, {"measurement": "Redroot pigweed plant response rating", "setting": "pigweed; [3]", "result": 2}, {"measurement": "Plant response rating, Redroot pigweed", "setting": "pigweed; [6]", "result": 7}, {"measurement": "Redroot pigweed plant response rating", "setting": "pigweed; [4]", "result": 7}, {"measurement": "Redroot pigweed plant response rating", "setting": "pigweed; [7]", "result": 8}, {"measurement": "Redroot pigweed plant response rating", "setting": "pigweed; [5]", "result": 9}, {"measurement": "Rape plant response rating", "setting": "rape; [1]", "result": 3}, {"measurement": "Plant response rating, Rape", "setting": "rape; [2]", "result": 4}, {"measurement": "Rape plant response rating", "setting": "rape; [3]", "result": 9}, {"measurement": "Plant response rating, Rape", "setting": "rape; [6]", "result": 9}, {"measurement": "Rape plant response rating", "setting": "rape; [4]", "result": 3}, {"measurement": "Rape plant response rating", "setting": "rape; [7]", "result": 4}, {"measurement": "Rape plant response rating", "setting": "rape; [5]", "result": 4}, {"measurement": "Plant response rating, Soybean", "setting": "soybean; [2]", "result": 3}, {"measurement": "Soybean plant response rating", "setting": "soybean; [3]", "result": 3}, {"measurement": "Plant response rating, Soybean", "setting": "soybean; [6]", "result": 4}, {"measurement": "Soybean plant response rating", "setting": "soybean; [4]", "result": 0}, {"measurement": "Soybean plant response rating", "setting": "soybean; [7]", "result": 0}, {"measurement": "Soybean plant response rating", "setting": "soybean; [5]", "result": 0}, {"measurement": "Plant response rating, Sugarbeets", "setting": "sugar beet; [2]", "result": 2}, {"measurement": "Sugarbeets plant response rating", "setting": "sugar beet; [3]", "result": 5}, {"measurement": "Plant response rating, Sugarbeets", "setting": "sugar beet; [6]", "result": 8}, {"measurement": "Sugarbeets plant response rating", "setting": "sugar beet; [4]", "result": 0}, {"measurement": "Sugarbeets plant response rating", "setting": "sugar beet; [7]", "result": 2}, {"measurement": "Sugarbeets plant response rating", "setting": "sugar beet; [5]", "result": 5}, {"measurement": "Plant response rating, Velvetleaf", "setting": "velvetleaf; [2]", "result": 3}, {"measurement": "Velvetleaf plant response rating", "setting": "velvetleaf; [3]", "result": 3}, {"measurement": "Plant response rating, Velvetleaf", "setting": "velvetleaf; [6]", "result": 5}, {"measurement": "Velvetleaf plant response rating", "setting": "velvetleaf; [4]", "result": 0}, {"measurement": "Velvetleaf plant response rating", "setting": "velvetleaf; [7]", "result": 0}, {"measurement": "Velvetleaf plant response rating", "setting": "velvetleaf; [5]", "result": 5}, {"measurement": "Plant response rating, Wheat", "setting": "wheat; [2]", "result": 2}, {"measurement": "Wheat plant response rating", "setting": "wheat; [3]", "result": 3}, {"measurement": "Plant response rating, Wheat", "setting": "wheat; [6]", "result": 6}, {"measurement": "Wheat plant response rating", "setting": "wheat; [4]", "result": 0}, {"measurement": "Wheat plant response rating", "setting": "wheat; [7]", "result": 0}, {"measurement": "Wheat plant response rating", "setting": "wheat; [5]", "result": 3}, {"measurement": "Plant response rating, Wild oats", "setting": "wild oat; [2]", "result": 0}, {"measurement": "Wild oats plant response rating", "setting": "wild oat; [3]", "result": 2}, {"measurement": "Plant response rating, Wild oats", "setting": "wild oat; [6]", "result": 7}, {"measurement": "Wild oats plant response rating", "setting": "wild oat; [4]", "result": 0}, {"measurement": "Wild oats plant response rating", "setting": "wild oat; [7]", "result": 2}, {"measurement": "Wild oats plant response rating", "setting": "wild oat; [5]", "result": 9}, {"measurement": "Nutsedge plant response rating", "setting": "purple nutsedge; [1]", "result": 0}, {"measurement": "Plant response rating, Nutsedge", "setting": "purple nutsedge; [2]", "result": 0}, {"measurement": "Nutsedge plant response rating", "setting": "purple nutsedge; [3]", "result": 0}, {"measurement": "Plant response rating, Nutsedge", "setting": "purple nutsedge; [6]", "result": 3}, {"measurement": "Nutsedge plant response rating", "setting": "purple nutsedge; [4]", "result": 0}, {"measurement": "Nutsedge plant response rating", "setting": "purple nutsedge; [7]", "result": 0}, {"measurement": "Nutsedge plant response rating", "setting": "purple nutsedge; [5]", "result": 0}]}]}
